# In patent US12378224B2 (Dong-A Socio Holdings Co., Ltd., priority 2016, dated 2025):
# Target: human MER (528-end) (Homo sapiens (Human), UniProt Q12866)
# Assay: HTRF Kinase Activity Biochemical Assay (KinEASE-TK)
# Settings: 10 uM ATP
# Outline: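 Activity read-out is the HTRF ratio (665 nm over 620 nm emission, ×10,000; excitation 340 nm) after 1 h detection with 0.375 nM Eu3+-cryptate anti-TK antibody plus 0.062 uM SA-XL665. Preceding kinase step: human MER (528-end), biotinylated TK substrate, 1 h, room temperature.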
# human MER (528-end), sequence (Q12866 528-999 limits assumed): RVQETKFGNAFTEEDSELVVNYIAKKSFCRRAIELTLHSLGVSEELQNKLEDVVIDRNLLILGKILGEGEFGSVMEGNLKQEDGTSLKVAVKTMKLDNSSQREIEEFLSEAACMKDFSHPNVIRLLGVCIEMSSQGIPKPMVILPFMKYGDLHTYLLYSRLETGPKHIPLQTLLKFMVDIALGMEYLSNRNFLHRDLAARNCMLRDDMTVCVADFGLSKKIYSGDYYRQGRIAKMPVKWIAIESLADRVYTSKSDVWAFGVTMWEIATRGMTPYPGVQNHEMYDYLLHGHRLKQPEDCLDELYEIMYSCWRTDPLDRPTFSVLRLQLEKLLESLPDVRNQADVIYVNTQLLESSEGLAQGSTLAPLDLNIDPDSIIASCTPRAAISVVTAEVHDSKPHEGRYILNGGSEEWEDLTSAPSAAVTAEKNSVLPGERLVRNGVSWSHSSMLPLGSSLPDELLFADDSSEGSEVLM
row,SMILES,IC50 [nM]
1,"CN1CCN(Cc2ccc(-c3ccc(C(=O)N4CC[C@@H](NC(=O)c5cc(-c6cnn(C)c6)cnc5N)C4)cc3)cc2)CC1 [Example 385, (R)-2-amino-5-(1-methyl-1H-pyrazol-4-yl)-N-(1-(4′-((4-methylpiperazin-1-yl)methyl)-[1,1′-biphenyl]-4-carbonyl)pyrrolidin-3-yl)nicotinamide]",10 to 100
2,"Cn1cc(-c2cnc(N)c(C(=O)N[C@@H]3CCN(Cc4ccccc4Cl)C3)c2)cn1 [Example 208, (R)-2-amino-N-(1-(2-chlorobenzyl)pyrrolidin-3-yl)-5-(1-methyl-1H-pyrazol-4-yl)nicotinamide]",100 to 1000
3,"Cn1cc(-c2cnc(N)c(C(=O)N[C@@H]3CCN(C(=O)Oc4cccc(-c5ccc(CN[C@@H]6CCNC6)cc5)c4)C3)c2)cn1 [Example 313, 4′-((((R)-pyrrolidin-3-yl)amino)methyl)-[1,1′-biphenyl]-3-yl (R)-3-(2-amino-5-(1-methyl-1H-pyrazol-4-yl)nicotinamido)pyrrolidine-1-carboxylate]",100 to 1000
4,"Cn1cc(-c2cnc(N)c(C(=O)N[C@@H]3CCN(C(=O)Cc4ccc(-c5ccccc5)cc4)C3)c2)cn1 [Example 422, (R)—N-(1-(2-([1,1′-biphenyl]-4-yl)acetyl)pyrrolidin-3-yl)-2-amino-5-(1-methyl-1H-pyrazol-4-yl)nicotinamide]",> 1000
5,"Cn1cc(-c2cnc(N)c(C(=O)N[C@@H]3CCN(C(=O)Oc4ccccc4O)C3)c2)cn1 [Example 98, 2-hydroxyphenyl (R)-3-(2-amino-5-(1-methyl-1H-pyrazol-4-yl)nicotinamido)pyrrolidine-1-carboxylate]",> 1000
6,"CN1CCN(Cc2ccc(-c3cccc4c(C(=O)N5CC[C@@H](NC(=O)c6cc(-c7cnn(C)c7)cnc6N)C5)cccc34)cc2)CC1 [Example 443, (R)-2-amino-5-(1-methyl-1H-pyrazol-4-yl)-N-(1-(5-(4-((4-methylpiperazin-1-yl)methyl)phenyl)-1-naphthoyl)pyrrolidin-3-yl)nicotinamide]",> 1000
7,"COc1ccc(OC)c(CN2CC[C@@H](NC(=O)c3cc(-c4cnn(C)c4)cnc3N)C2)c1 [Example 218, (R)-2-amino-N-(1-(2,5-dimethoxybenzyl)pyrrolidin-3-yl)-5-(1-methyl-1H-pyrazol-4-yl)nicotinamide]",> 1000
8,"CCOC(=O)c1csc(N2CC[C@@H](NC(=O)c3cc(-c4cnn(C)c4)cnc3N)C2)n1 [Example 139, ethyl (R)-2-(3-(2-amino-5-(1-methyl-1H-pyrazol-4-yl)nicotinamido)pyrrolidin-1-yl)thiazole-4-carboxylate]",> 1000
9,"Cn1cc(-c2cnc(N)c(C(=O)N[C@@H]3CCN(C(=O)Oc4cccc(-c5ccc(CN6CCC(C(=O)O)C6)cc5)c4)C3)c2)cn1 (stereo partly drawn) [Example 329, 1-((3′-(((R)-3-(2-amino-5-(1-methyl-1H-pyrazol-4-yl)nicotinamido)pyrrolidine-1-carbonyl)oxy)-[1,1′-biphenyl]-4-yl)methyl)pyrrolidine-3-carboxylic acid]",> 1000
10,"Cn1cc(-c2cnc(N)c(C(=O)N[C@@H]3CCN(Cc4ccc(Cl)c(Cl)c4)C3)c2)cn1 [Example 213, (R)-2-amino-N-(1-(3,4-dichlorobenzyl)pyrrolidin-3-yl)-5-(1-methyl-1H-pyrazol-4-yl)nicotinamide]",> 1000
11,"CN1CCC(n2cc(-c3cnc(N)c(C(=O)N[C@@H]4CCN(C(=O)Oc5ccccc5)C4)c3)cn2)CC1 [Example 119, phenyl (R)-3-(2-amino-5-(1-(1-methylpiperidin-4-yl)-1H-pyrazol-4-yl)nicotinamido)pyrrolidine-1-carboxylate]",> 1000
12,"Cn1cc(-c2cnc(N)c(C(=O)N[C@@H]3CCN(C(=O)Oc4cccc(-c5cnn(CCN6CCOCC6)c5)c4)C3)c2)cn1 [Example 287, 3-(1-(2-morpholinoethyl)-1H-pyrazol-4-yl)phenyl (R)-3-(2-amino-5-(1-methyl-1H-pyrazol-4-yl)nicotinamido)pyrrolidine-1-carboxylate]",> 1000
13,"CN1CCN(Cc2ccc(-c3ccc4cc(OC(=O)N5CC[C@@H](NC(=O)c6cc(-c7cnn(C)c7)cnc6N)C5)ccc4c3)cc2)CC1 [Example 293, 6-(4-((4-methylpiperazin-1-yl)methyl)phenyl)naphthalen-2-yl (R)-3-(2-amino-5-(1-methyl-1H-pyrazol-4-yl)nicotinamido)pyrrolidine-1-carboxylate]",100 to 1000
14,"Cn1cc(-c2cnc(N)c(C(=O)N[C@@H]3CCN(C(=O)Oc4ccc(Cl)c(Cl)c4)C3)c2)cn1 [Example 88, 3,4-dichlorophenyl (R)-3-(2-amino-5-(1-methyl-1H-pyrazol-4-yl)nicotinamido)pyrrolidine-1-carboxylate]",> 1000
15,"Cn1cc(-c2cnc(N)c(C(=O)N[C@@H]3CCN(C(=O)c4ccc(-c5ccc(C(F)(F)F)cc5)cc4)C3)c2)cn1 [Example 371, (R)-2-amino-5-(1-methyl-1H-pyrazol-4-yl)-N-(1-(4′-(trifluoromethyl)-[1,1′-biphenyl]-4-carbonyl)pyrrolidin-3-yl)nicotinamide]",> 1000
16,"Cn1cc(-c2cnc(N)c(C(=O)N[C@@H]3CCN(C(=O)Oc4cccc(O)c4)C3)c2)cn1 [Example 101, 3-hydroxyphenyl (R)-3-(2-amino-5-(1-methyl-1H-pyrazol-4-yl)nicotinamido)pyrrolidine-1-carboxylate]",> 1000
17,"CN1CCN(Cc2ccc(-c3cccc(C(=O)N4CC[C@@H](NC(=O)c5cc(-c6cnn(C)c6)cnc5N)C4)c3)cc2)CC1 [Example 390, (R)-2-amino-5-(1-methyl-1H-pyrazol-4-yl)-N-(1-(4′-((4-methylpiperazin-1-yl)methyl)-[1,1′-biphenyl]-3-carbonyl)pyrrolidin-3-yl)nicotinamide]",> 1000
18,"Cn1cc(-c2cnc(N)c(C(=O)N[C@@H]3CCN(C(=S)NCc4ccccc4)C3)c2)cn1 [Example 43, (R)-2-amino-N-(1-(benzylcarbamothioyl)pyrrolidin-3-yl)-5-(1-methyl-1H-pyrazol-4-yl)nicotinamide]",> 1000
19,"Cn1cc(-c2cnc(N)c(C(=O)N[C@@H]3CCN(C(=S)Nc4cccc(-c5ccccc5)c4)C3)c2)cn1 [Example 51, (R)—N-(1-([1,1′-biphenyl]-3-ylcarbamothioyl)pyrrolidin-3-yl)-2-amino-5-(1-methyl-1H-pyrazol-4-yl)nicotinamide]",100 to 1000

# More lines, now with the values ahead:
row,IC50 [nM],SMILES
1,> 1000,"Cc1nn(C)cc1-c1cccc(C(=O)N2CC[C@@H](NC(=O)c3cc(-c4cnn(C)c4)cnc3N)C2)c1 [Example 469, (R)-2-amino-N-(1-(3-(1,3-dimethyl-1H-pyrazol-4-yl)benzoyl)pyrrolidin-3-yl)-5-(1-methyl-1H-pyrazol-4-yl)nicotinamide]"
2,> 1000,"Cn1cc(-c2cnc(N)c(C(=O)N[C@@H]3CCN(C(=O)c4cccc(-c5cnn(C6CCCC6)c5)c4)C3)c2)cn1 [Example 470, (R)-2-amino-N-(1-(3-(1-cyclopentyl-1H-pyrazol-4-yl)benzoyl)pyrrolidin-3-yl)-5-(1-methyl-1H-pyrazol-4-yl)nicotinamide]"
3,100 to 1000,"Cn1cc(-c2cnc(N)c(C(=O)N[C@@H]3CCN(C(=O)c4ccc(/C=C/c5ccccn5)cc4)C3)c2)cn1 [Example 825, (R,E)-2-amino-5-(1-methyl-1H-pyrazol-4-yl)—N-(1-(4-(2-(pyridin-2-yl)vinyl)benzoyl)pyrrolidin-3-yl)nicotinamide]"
4,10 to 100,"Nc1ncc(-c2cnn(C3CCNCC3)c2)cc1C(=O)N[C@@H]1CCN(C(=O)c2ccc(-c3ccccc3)cc2)C1 [Example 562, (R)—N-(1-([1,1′-biphenyl]-4-carbonyl)pyrrolidin-3-yl)-2-amino-5-(1-(piperidin-4-yl)-1H-pyrazol-4-yl)nicotinamide]"
5,> 1000,Cn1cc(-c2cnc(N)c(C(=O)N[C@@H]3CCN(C(=O)c4cccc5c(-c6ccc(CN7CCC[C@@H]7CO)cc6)cccc45)C3)c2)cn1 [Example 444]
6,> 1000,"COC(=O)/C=C/c1ccc(C(=O)N2CC[C@@H](NC(=O)c3cc(-c4cnn(C)c4)cnc3N)C2)cc1 [Example 828, methyl (R,E)-3-(4-(3-(2-amino-5-(1-methyl-1H-pyrazol-4-yl)nicotinamido)pyrrolidine-1-carbonyl)phenyl)acrylate]"
7,> 1000,"Cn1cc(-c2cnc(N)c(C(=O)N[C@@H]3CCN(C(=O)c4cccc(-c5ccc(C(=O)N6CCNCC6)cc5)c4)C3)c2)cn1 [Example 465, (R)-2-amino-5-(1-methyl-1H-pyrazol-4-yl)-N-(1-(4′-(piperazine-1-carbonyl)-[1,1′-biphenyl]-3-carbonyl)pyrrolidin-3-yl)nicotinamide]"
8,> 1000,"Cc1ccc(C(=O)N2CC[C@@H](NC(=O)c3cc(-c4cnn(C)c4)cnc3N)C2)cc1-c1ccccc1Cl [Example 483, (R)-2-amino-N-(1-(2′-chloro-6-methyl-[1,1′-biphenyl]-3-carbonyl)pyrrolidin-3-yl)-5-(1-methyl-1H-pyrazol-4-yl)nicotinamide]"
9,10 to 100,"Nc1ncc(-c2cccnc2)cc1C(=O)N[C@@H]1CCN(C(=O)c2ccc(-c3ccccc3)cc2)C1 [Example 558, (R)—N-(1-([1,1′-biphenyl]-4-carbonyl)pyrrolidin-3-yl)-6-amino-[3,3′-bipyridine]-5-carboxamide]"
10,> 1000,"CN1CCN(C(=O)Cc2cccc(-c3cccc(C(=O)N4CC[C@@H](NC(=O)c5cc(-c6cnn(C)c6)cnc5N)C4)c3)c2)CC1 [Example 452, (R)-2-amino-5-(1-methyl-1H-pyrazol-4-yl)-N-(1-(3′-(2-(4-methylpiperazin-1-yl)-2-oxoethyl)-[1,1′-biphenyl]-3-carbonyl)pyrrolidin-3-yl)nicotinamide]"
11,> 1000,"Cn1cc(-c2cnc(N)c(C(=O)N[C@@H]3CCN(C(=O)c4nc5ccccc5[nH]4)C3)c2)cn1 [Example 545, (R)—N-(1-(1H-benzo[d]imidazole-2-carbonyl)pyrrolidin-3-yl)-2-amino-5-(1-methyl-1H-pyrazol-4-yl)nicotinamide]"
